# Legend:
# Assay type in all cases: in vivo, rat
# Male Fisher 344 rats [1] = assay: Plasma protein-bound 3-nitrotyrosine (HPLC-EC)
# Procedure: (§1) Animals and treatment protocol: Male Fisher 344 rats (260-280 g) obtained from Charles River Laboratories (Raleigh, N.C.) were used in all experiments. The animals were housed three to a cage. Autoclaved hardwood bedding was used in solid-bottom polycarbonate cages with filter tops. Animal rooms were maintained at 20-25° C. with 35-70% relative humidity with alternating 12-hour light and dark cycles. The rats had free access to deionized, reverse-osmosis-treated water and received autoclaved NIH 31 rodent chow (Zeigler Bros., Gardners, Pa.) ad libitum. For all experiments, rats were fasted overnight and then administered intraperitoneal injections of carbon tetrachloride in canola oil. Control rats received an equal volume of canola oil. Fasting continued throughout the experiment. Rats were anesthetized with Nembutal (0.1 ml/100 g body weight) and 5 ml blood was removed from the dorsal aorta proximal to its bifurcation into the common iliac arteries.
# (§2) Carbon tetrachloride (CCL4) treatment: Animals from each of the three dose groups (Control-canola oil, 120 mg/kg CCl4 i.p. and 1200 mg/kg CCl4 i.p.) were investigated at three time points (2, 7, and 16 hours after CCl4 injection). Indomethacin-pretreated rats were also investigated at the same three time points, and the meclofenamic acid-pretreated rats were investigated at one time point (7 hours). Each group consisted of five rats for each analysis, except the meclofenamic acid pretreatment group which consisted of six rats. Animal treatment, sample preparation, assessment of liver histology and serum enzyme activities are described elsewhere (Kadiiska et al., 2000, Free Radic. Biol. Med. 28: 838-845; Jackson, 1989, J. Pharmacol. Exp. Ther. 250: 9-21) and were carried out at NIEHS, Research Triangle Park, N.C.
# (§3) Plasma sample preparation: Blood (5 ml) was drawn through single draw Vacutainer® needles (21 Gauge) into open Vacutainer® blood collection tubes containing heparin. The tubes were gently inverted 2-3 times for mixing and immediately placed on ice. Blood was centrifuged (2,000 rpm for 10 minutes at 4° C.) no more than 30 minutes after collection, and the plasma was collected, frozen on dry ice and stored at −70° C.
# Determination of tyrosine products employed a method of sample preparation wherein tyrosine analogs were enzymatically hydrolyzed from protein without the need for sample extraction, concentration or derivatization (Henley et al., 1997, Analytical Biochem. 251: 187-195). High performance liquid chromatography was applied in conjunction with coulometric electrochemical array (HPLC-EC) detection to allow ultrasensitive determination of protein-bound 3-nitrotyrosine and 3,4-dihydroxyphenylalanine (3-hydroxytyrosine) as specific in situ biomarkers of protein exposure to reactive nitrating or oxidizing species (Henley et al., 1997, Analytical Biochem. 251: 187-195). Tyrosine and derivatives were analyzed simultaneously, with practical detection limits for tyrosine, 3-nitrotyrosine, and 3,4-Dopa being 10, 50 and 2 pmol respectively, in as little as 20 μL of sample. The measurements were conducted at the Oklahoma Medical Research Foundation (OMRF), Oklahoma City, Okla.
# Male Fisher 344 rats [2] = assay: Plasma lipid hydroperoxides (iodometric assay) after CCl4
# Procedure: as §1, §2, §3
# The second assay of plasma lipid hydroperoxides used iodometric spectrophotometric determination. Concentrations of lipid hydroperoxides were measured according to a slightly modified procedure of Cramer et al. (1991, Anal. Biochem. 193: 204-211) where plasma was treated to enzymatically hydrolyze lipids, and nonesterified fatty acid peroxides were then extracted with ethyl acetate. Extracted lipids were reacted with potassium iodide in citric acid and methylene chloride, and the resulting triiodide ion (I3^−) was measured spectrophotometrically. All measurements were done at the United States Environmental Protection Agency (EPA), Research Triangle Park, N.C.
# Male Fisher 344 rats [3] = assay: Plasma free plus esterified 8-iso-PGF2α by GC/MS; conditions: for Free plus esterified 8-iso-PGF2a (by GC-MS): plasma
# Procedure: as §1
# (§4) Indomethacin pretreatment: The indomethacin regimen used has been previously shown to inhibit COX activity in rats by 90% (dose of 5 mg/kg s.c. 24 hours, 12 hours, and 2 hours prior to the injection of CCl4) (Jackson, 1989, J. Pharmacol. Exp. Ther. 250: 9-21). An additional booster dose was injected 8 hours after the last injection of CCl4 for the measurements performed 16 hours after treatment with CCl4.
# Meclofenamic acid pretreatment: Meclofenamic acid was injected at a dose of 5 mg/kg i.p. 12 h and 2 h prior to the injection of CCl4.
# as §2, §3
# Measurement of the sum of free plus esterified 8-iso-PGF2α in plasma were performed using an improved GC/MS-based analysis for the quantitation of this isoprostane in plasma. A detailed protocol for this extraction and quantitation has been published (Parker et al., 2001, Mol. Biotechnol. 18: 105-118). Measurements of the sum of free plus esterified 8-iso-PGF2α in plasma were performed at NIEHS, Research Triangle Park, N.C.
# Male Fisher 344 rats [4] = assay: Liver enzyme activities, histopathology and other clinical parameters after CCl4; conditions: CCl4 120 and 1200 mg/kg; 2, 7, 16 h
# Procedure: as §1, with “Rats were anesthetized with Nembutal (0.1 ml/100 g body weight) and 5 ml blood was removed from the dorsal aorta proximal to its bifurcation into the common iliac arteries.” left out
# Serum enzyme activities of lactic acid dehydrogenase (LDH), alanine aminotransferase (ALT), alkaline phosphatase (ALP), aspartate aminotransferase (AST), sorbitol dehydrogenase (SDH), 5′-nucleotidase (5′-NT), serum concentration of total bile acids (TBA), and liver histopathology were performed, as described (Kadiiska et al., 2000, Free Radic. Biol. Med. 28:838-845). In addition, other clinical parameters such as serum albumin, total protein, total iron, total iron binding capacity, nitrite/nitrate, and urinary creatinine were determined, using standard techniques known to those in the art.
# Male Fisher 344 rats [5] = assay: Plasma MDA by GC/NICI-MS; conditions: for MDA (by GC-M5): plasma
# Procedure: as §1, §4, §2, §3
# Plasma MDA concentrations were also measured by using gas chromatography/negative ion chemical ionization mass spectroscopy (GC/NICI-MS) as described by Yeo et al. (Yeo et al., 1994, Anal. Biochem. 220: 391-396). The stable isotope internal standard [^2H2] MDA and an antioxidant (2,6-tert-butyl-4-methylphenol) were added to the plasma samples. The samples were then incubated at room temperature in 6.6 mol H2SO4 for 10 minutes to hydrolyze the aldehydes from the proteins. Plasma MDA was converted to a stable pentafluorophenyl hydrazine derivative which was quantified by using the GC-MS in the negative chemical ionization mode. The assay was performed at Children's Hospital Oakland Research Institute, Oakland, Calif.
smiles,measurement,setting,value
"ClC(Cl)(Cl)Cl [CCl4, Carbon tetrachloride]","3-Nitrotyrosine, bound","Male Fisher 344 rats [1]; CCl4 120 mg/kg i.p., 2 h",0.24 µM
same,"3-Nitrotyrosine, bound","Male Fisher 344 rats [1]; CCl4 120 mg/kg i.p., 7 h",0.39 µM
same,"3-Nitrotyrosine, bound","Male Fisher 344 rats [1]; CCl4 120 mg/kg i.p., 16 h",0.43 µM
same,"3-Nitrotyrosine, bound","Male Fisher 344 rats [1]; CCl4 1200 mg/kg i.p., 2 h",0.26 µM
same,"3-Nitrotyrosine, bound","Male Fisher 344 rats [1]; CCl4 1200 mg/kg i.p., 7 h",0.42 µM
same,"3-Nitrotyrosine, bound","Male Fisher 344 rats [1]; CCl4 1200 mg/kg i.p., 16 h",0.38 µM
same,LOOH (iodometric assay),"Male Fisher 344 rats [2]; CCl4 120 mg/kg i.p., 2 h",0.30 µM
same,LOOH (iodometric assay),"Male Fisher 344 rats [2]; CCl4 120 mg/kg i.p., 7 h",0.30 µM
same,LOOH (iodometric assay),"Male Fisher 344 rats [2]; CCl4 120 mg/kg i.p., 16 h",0.56 µM
same,LOOH (iodometric assay),"Male Fisher 344 rats [2]; CCl4 1200 mg/kg i.p., 2 h",1.42 µM
same,LOOH (iodometric assay),"Male Fisher 344 rats [2]; CCl4 1200 mg/kg i.p., 7 h",0.40 µM
same,LOOH (iodometric assay),"Male Fisher 344 rats [2]; CCl4 1200 mg/kg i.p., 16 h",0.39 µM
same,Free plus esterified 8-iso-PGF2a (by GC-MS),"Male Fisher 344 rats [3]; CCl4 120 mg/kg i.p., 2 h",3.07 ng/mL
same,Free plus esterified 8-iso-PGF2a (by GC-MS),"Male Fisher 344 rats [3]; CCl4 120 mg/kg i.p., 7 h",1.79 ng/mL
same,Free plus esterified 8-iso-PGF2a (by GC-MS),"Male Fisher 344 rats [3]; CCl4 120 mg/kg i.p., 16 h",0.93 ng/mL
same,Free plus esterified 8-iso-PGF2a (by GC-MS),"Male Fisher 344 rats [3]; CCl4 1200 mg/kg i.p., 2 h",6.63 ng/mL
same,Free plus esterified 8-iso-PGF2a (by GC-MS),"Male Fisher 344 rats [3]; CCl4 1200 mg/kg i.p., 7 h",4.39 ng/mL
same,Free plus esterified 8-iso-PGF2a (by GC-MS),"Male Fisher 344 rats [3]; CCl4 1200 mg/kg i.p., 16 h",1.68 ng/mL
same,increase of free plus esterified plasma 8-iso-PGF2α,"Male Fisher 344 rats [3]; high dose CCl4, 2 h",15 fold
same,increase of free plus esterified plasma 8-iso-PGF2α,"Male Fisher 344 rats [3]; high dose CCl4, 7 h",10 fold
same,increase of free plus esterified plasma 8-iso-PGF2α,"Male Fisher 344 rats [3]; high dose CCl4, 16 h",4 fold
same,plasma iron concentrations and total iron binding capacity,Male Fisher 344 rats [4],significantly increased only at the high dose at 16 hours
same,plasma nitrite/nitrate levels,Male Fisher 344 rats [4],significantly increased only at the high dose at all three time points
same,increase of plasma MDA (GC/NICI-MS),Male Fisher 344 rats [5]; 7 hours after CCl4,3 fold
same,MDA (by GC-M5),"Male Fisher 344 rats [5]; CCl4 120 mg/kg i.p., 2 h",0.41 µM
same,MDA (by GC-M5),"Male Fisher 344 rats [5]; CCl4 120 mg/kg i.p., 7 h",0.35 µM
same,MDA (by GC-M5),"Male Fisher 344 rats [5]; CCl4 120 mg/kg i.p., 16 h",0.22 µM
same,MDA (by GC-M5),"Male Fisher 344 rats [5]; CCl4 1200 mg/kg i.p., 2 h",1.35 µM
same,MDA (by GC-M5),"Male Fisher 344 rats [5]; CCl4 1200 mg/kg i.p., 7 h",0.36 µM
same,MDA (by GC-M5),"Male Fisher 344 rats [5]; CCl4 1200 mg/kg i.p., 16 h",0.23 µM
same,increase of plasma MDA compared to controls (GC/NICI-MS),"Male Fisher 344 rats [5]; higher dose of CCl4, 2 hours",12 fold

# From patent US7833795B2, “Assessment of cardiovascular risk using isoprostane biomarkers and COX-2 selective inhibitors” (The Trustees of the University of Pennsylvania, priority 2004, dated 2010)
